From patent US4568693A, “N-Naphthoylglycine derivatives” (Ayerst, McKenna & Harrison, Inc., priority 1981, dated 1986)

Molecular target: T1, aldose reductase (Bos taurus, UniProt P16116)
T1 construct: the preparation of the enzyme from bovine lens; from tissue; host or cells: bovine lens
Assay: in vitro aldose reductase inhibition (modified Hayman and Kinoshita procedure)
Type: biochemical, bovine
Conditions: for inhibition at 10 µM: 10^-5 molar, read-out: % Inhibition at Different Molar Concentration (in vitro), 10^-5; for inhibition at 1 µM: 10^-6 molar, read-out: % Inhibition at Different Molar Concentration (in vitro), 10^-6; for inhibition at 0.1 µM: 10^-7 molar, read-out: % Inhibition at Different Molar Concentration (in vitro), 10^-7
Description: In the present case the procedure of Hayman and Kinoshita is modified in that the final chromatography step is omitted in the preparation of the enzyme from bovine lens.

Structure (SMILES) | inhibition at 10 µM [%] | inhibition at 1 µM [%] | inhibition at 0.1 µM [%]
CC(C)c1cccc2c(C(=S)N(C)CC(=O)O)cccc12 [Example 51, N-[[5-(1-methylethyl)-1-naphthalenyl]thioxomethyl]-N-methylglycine] | 91 | 72 | 21
CN(CC(=O)O)C(=S)c1cccc2c(Br)c(OCc3cccc(C(F)(F)F)c3)ccc12 [Example 53, N-[[5-bromo-6-[3-(trifluoromethyl)phenylmethoxy]-1-naphthalenyl]thioxomethyl]-N-methylglycine] | 86 | 37 | 11
CN(CC(=O)O)C(=S)c1cccc2c(Br)c(OCc3ccc(Cl)cc3)ccc12 [Example 53a, N-[[5-bromo-6-(4-chlorophenylmethoxy)-1-naphthalenyl]thioxomethyl]-N-methylglycine] | 88 | 44 | 4
O=C(O)CNC(=S)c1cccc2c(Br)cccc12 [Example 54, N-[(5-bromo-1-naphthalenyl)thioxomethyl]glycine] | 54 | 14 | 
CCCN(CC(=O)O)C(=S)c1cccc2c(Br)cccc12 [Example 55, N-[(5-bromo-1-naphthalenyl)thioxomethyl]-N-propylglycine] | 91 | 70 | 19
C=CCN(CC(=O)O)C(=S)c1cccc2c(Br)cccc12 [Example 56, N-[(5-bromo-1-naphthalenyl)thioxomethyl]-N-(2-propylene)glycine] | 92 | 77 | 27
CCN(CC(=O)O)C(=S)c1cccc2c(Br)cccc12 [Example 57, N-[(5-bromo-1-naphthalenyl)thioxomethyl]-N-ethylglycine] | 85 | 72 | 24
CCCCN(CC(=O)O)C(=S)c1cccc2c(Br)cccc12 [Example 58, N-[(5-bromo-1-naphthalenyl)thioxomethyl]-N-butylglycine] | 86 | 65 | 19
O=C(O)CN(Cc1ccccc1)C(=S)c1cccc2c(Br)cccc12 [Example 59, N-[(5-bromo-1-naphthalenyl)thioxomethyl]-N-(phenylmethyl)glycine] | 86 | 69 | 20
CN(CC(=O)O)C(=O)c1cccc2c(Br)cccc12 [N-[(5-Bromo-1-naphthalenyl)carbonyl]-N-methylglycine] | 64 | 21 | 
COc1ccc2c(C(=O)N(C)CC(=O)O)cccc2c1C(F)(F)F [N-[[5-(trifluoromethyl)-6-methoxy-1-naphthalenyl]carbonyl]-N-methylglycine] | 94 | 93 | 60
